Experimental data: PubChem BioAssay (NCI)
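In this assay, cells in 96-well plates receive the compound at five concentrations for 48 hours. Endpoints are linearly interpolated between the surrounding concentrations. At the GI50, growth is halved. TGI: concentration producing complete growth inhibition.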

Test system: LOX IMVI melanoma
Experiment: growth of human tumour cells (NCI), 48 h

How did the GI50 turn out when `CCCCCCOc1ccc(/C=N/Nc2cc(C)nc3ccc(Cl)cc23)cc1` was run?
The GI50 was 1.26 µM.

And the TGI?
Its TGI is 2.57 µM.

Test system: SK-OV-3 ovarian
Experiment: growth of human tumour cells (NCI), 48 h

How did the TGI turn out when `O=C(CC1Sc2ccccc2NC1=O)Nc1ccccc1[N+](=O)[O-]` (configuration not stated) was run?
The TGI was > 100 µM.

How did the TGI turn out when `CCOC(=O)c1csc(NC(=O)CN2CCCC2)n1` was run?
The TGI was > 100 µM.

How did the TGI turn out when `CCn1cnc2c(=S)nc(N)[nH]c21` was run?
The TGI was > 100 µM.

How did the TGI turn out when `CC1NC(=O)C(C)C(c2ccccc2)N(N=O)C1c1ccccc1` (configuration not stated) was run?
The TGI was > 79.1 µM.

With `O=C1OC(c2ccccc2)=N/C1=C\c1ccc([N+](=O)[O-])cc1` as the molecule, how does the TGI read?
The TGI was > 100 µM.

`CO[C@](C(=O)OC[C@H]1[C@@H](COC(C)=O)[C@@H]2O[C@H]1c1cc3c(cc12)OCO3)(c1ccccc1)C(F)(F)F` was tested. Which TGI did it give?
The TGI was > 100 µM.

How did the TGI turn out when `O=C(O)Cc1ccc([N+](=O)[O-])cc1[N+](=O)[O-]` was run?
The TGI was > 100 µM.

How did the TGI turn out when `CON(C)C(=O)C(Cc1ccccc1)NC(=O)OCc1ccccc1` (configuration not stated) was run?
The TGI was > 100 µM.

Which TGI does the source give for `Cc1ccc(C(=O)OC(C(=O)O)C(OC(=O)c2ccc(C)cc2)C(=O)O)cc1` (configuration not stated) (tested in a mixture with another compound) here?
Its TGI is 28.2 µM.

Which results are given for `CCCCCCOc1ccc(/C=N/Nc2cc(C)nc3ccc(Cl)cc23)cc1`?
GI50: 1.7 µM; TGI: 3.11 µM

Test system: HT29 colon
Experiment: growth of human tumour cells (NCI), 48 h

Which TGI does the source give for `O=C(CC1Sc2ccccc2NC1=O)Nc1ccccc1[N+](=O)[O-]` (configuration not stated) here?
The TGI was > 100 µM.

How did the TGI turn out when `CCOC(=O)c1csc(NC(=O)CN2CCCC2)n1` was run?
The TGI was > 100 µM.

For `CCn1cnc2c(=S)nc(N)[nH]c21`, which TGI is on record?
Its TGI is > 100 µM.

How did the TGI turn out when `CC1NC(=O)C(C)C(c2ccccc2)N(N=O)C1c1ccccc1` (configuration not stated) was run?
The TGI was > 100 µM.

Which TGI does the source give for `O=C1OC(c2ccccc2)=N/C1=C\c1ccc([N+](=O)[O-])cc1` here?
The TGI was > 100 µM.

`CO[C@](C(=O)OC[C@H]1[C@@H](COC(C)=O)[C@@H]2O[C@H]1c1cc3c(cc12)OCO3)(c1ccccc1)C(F)(F)F` was tested. Which TGI did it give?
Its TGI is > 100 µM.

Which TGI does the source give for `O=C(O)Cc1ccc([N+](=O)[O-])cc1[N+](=O)[O-]` here?
Its TGI is > 100 µM.

For `CON(C)C(=O)C(Cc1ccccc1)NC(=O)OCc1ccccc1` (configuration not stated), which TGI is on record?
The TGI was > 100 µM.

Which TGI does the source give for `Cc1ccc(C(=O)OC(C(=O)O)C(OC(=O)c2ccc(C)cc2)C(=O)O)cc1` (configuration not stated) (tested in a mixture with another compound) here?
Its TGI is 10.2 µM.

Which results are given for `CCCCCCOc1ccc(/C=N/Nc2cc(C)nc3ccc(Cl)cc23)cc1`?
GI50: 1.59 µM; TGI: 3.09 µM

Test system: MDA-MB-231 breast
Experiment: growth of human tumour cells (NCI), 48 h

`CCOC(=O)c1csc(NC(=O)CN2CCCC2)n1` was tested. Which TGI did it give?
The TGI was > 100 µM.

Which TGI does the source give for `O=C1OC(c2ccccc2)=N/C1=C\c1ccc([N+](=O)[O-])cc1` here?
Its TGI is > 100 µM.

For `CO[C@](C(=O)OC[C@H]1[C@@H](COC(C)=O)[C@@H]2O[C@H]1c1cc3c(cc12)OCO3)(c1ccccc1)C(F)(F)F`, which TGI is on record?
The TGI was > 100 µM.

Which TGI does the source give for `O=C(O)Cc1ccc([N+](=O)[O-])cc1[N+](=O)[O-]` here?
Its TGI is > 100 µM.

Which results are given for `COc1cc(/C=C2\CN(S(=O)(=O)c3ccc(C)cc3)C/C(=C\c3cc(CN4CCCC4)c(O)c(OC)c3)C2=O)cc(CN2CCCC2)c1O`?
GI50: 1.8 µM; TGI: 3.53 µM

What does the source list for `CCCCCCOc1ccc(/C=N/Nc2cc(C)nc3ccc(Cl)cc23)cc1`?
GI50: 1.67 µM; TGI: 3.24 µM

Test system: SW-620 colon
Experiment: growth of human tumour cells (NCI), 48 h

For `O=C(CC1Sc2ccccc2NC1=O)Nc1ccccc1[N+](=O)[O-]` (configuration not stated), which TGI is on record?
The TGI was > 100 µM.

For `CCOC(=O)c1csc(NC(=O)CN2CCCC2)n1`, which TGI is on record?
Its TGI is > 100 µM.

For `CCn1cnc2c(=S)nc(N)[nH]c21`, which TGI is on record?
Its TGI is > 100 µM.

`CC1NC(=O)C(C)C(c2ccccc2)N(N=O)C1c1ccccc1` (configuration not stated) was tested. Which TGI did it give?
The TGI was > 100 µM.

With `O=C1OC(c2ccccc2)=N/C1=C\c1ccc([N+](=O)[O-])cc1` as the molecule, how does the TGI read?
Its TGI is > 100 µM.

With `CO[C@](C(=O)OC[C@H]1[C@@H](COC(C)=O)[C@@H]2O[C@H]1c1cc3c(cc12)OCO3)(c1ccccc1)C(F)(F)F` as the molecule, how does the TGI read?
The TGI was > 100 µM.

How did the TGI turn out when `O=C(O)Cc1ccc([N+](=O)[O-])cc1[N+](=O)[O-]` was run?
The TGI was > 100 µM.

Which TGI does the source give for `CON(C)C(=O)C(Cc1ccccc1)NC(=O)OCc1ccccc1` (configuration not stated) here?
The TGI was > 100 µM.

With `Cc1ccc(C(=O)OC(C(=O)O)C(OC(=O)c2ccc(C)cc2)C(=O)O)cc1` (configuration not stated) (tested in a mixture with another compound) as the molecule, how does the TGI read?
Its TGI is 10.2 µM.

Test system: M14 melanoma
Experiment: growth of human tumour cells (NCI), 48 h

`O=C(CC1Sc2ccccc2NC1=O)Nc1ccccc1[N+](=O)[O-]` (configuration not stated) was tested. Which TGI did it give?
Its TGI is > 100 µM.

`CCOC(=O)c1csc(NC(=O)CN2CCCC2)n1` was tested. Which TGI did it give?
Its TGI is > 100 µM.

With `CCn1cnc2c(=S)nc(N)[nH]c21` as the molecule, how does the TGI read?
The TGI was > 100 µM.

`O=C1OC(c2ccccc2)=N/C1=C\c1ccc([N+](=O)[O-])cc1` was tested. Which TGI did it give?
Its TGI is > 100 µM.

How did the TGI turn out when `CO[C@](C(=O)OC[C@H]1[C@@H](COC(C)=O)[C@@H]2O[C@H]1c1cc3c(cc12)OCO3)(c1ccccc1)C(F)(F)F` was run?
The TGI was > 100 µM.

Which TGI does the source give for `O=C(O)Cc1ccc([N+](=O)[O-])cc1[N+](=O)[O-]` here?
Its TGI is > 100 µM.

Which TGI does the source give for `CON(C)C(=O)C(Cc1ccccc1)NC(=O)OCc1ccccc1` (configuration not stated) here?
The TGI was > 100 µM.

With `COc1cc(/C=C2\CN(S(=O)(=O)c3ccc(C)cc3)C/C(=C\c3cc(CN4CCCC4)c(O)c(OC)c3)C2=O)cc(CN2CCCC2)c1O` as the molecule, how does the GI50 read?
Its GI50 is 1.55 µM.

What about the TGI of the same molecule?
Its TGI is 3.17 µM.

How did the GI50 turn out when `CCCCCCOc1ccc(/C=N/Nc2cc(C)nc3ccc(Cl)cc23)cc1` was run?
Its GI50 is 1.71 µM.

What about the TGI of the same molecule?
The TGI was 3.36 µM.
